# Tests used:
# [1] = tested on: M. truncatula LysM receptor-like kinase (LysM RLK) genes; test: LysM RLK gene expression by qRT-PCR after GR24 and/or TIS108 treatment; assay type: in vivo, Medicago truncatula; conditions: BNM plates 4 days
# Protocol: FIGS. 24A-24E show the effects of nutrient starvation and strigolactone and/or karrikin treatment on M. truncatula RLK gene expression levels. […] As indicated from left to right above the heat map, M. truncatula was grown under limiting nitrate (−N, 0 mM NO3^− and 3.75 mM PO4^−), limiting phosphate (−P, 5 mM NO3^− and 0.0075 mM PO4^−), or limiting nitrate and phosphate (−N−P, 0 mM NO3^− and 0.0075 mM PO4^−). The relative expression level of each condition is normalized to expression when plants were grown under replete nitrate and replete phosphate (+N+P, 5 mM NO3^− and 3.75 mM PO4^−). As indicated from left to right below the heatmap, expression was measured either 5, 10, or 15 days after germination (“DAG”). The color scale indicates the relative expression levels, with black representing the lowest expression and light grey representing the highest expression. FIGS. 24B-24E show expression of M. truncatula genes after seedlings were grown on BNM plates for 4 days, and then treated with either DMSO (mock), 0.1 μM synthetic strigolactone analog GR24, 1 μM strigolactone-biosynthesis inhibitor TIS108, or both (0.1 μM GR24 and 1 μM TIS108) for 24 hours, as indicated on the x-axis. […] In each of FIGS. 24B-24E gene expression was determined by RT-qPCR, relative expression levels is on the y-axis, and the asterisks indicate the relative level of statistical significance as determined by a Student's t-test.
# Gene expression was measured by qRT-PCR (FIGS. 2A-2B). Plants were grown on modified BNM plates (described above) with 100 nM AVG for four days, the plants were then carefully transferred to liquid BNM with the appropriate nutrient concentrations along with COs, PGN, flg22 and SmLCO, at a final concentration of 10^−7 M COs, 10^−7 M flg22, 0.4 mg/ml PGN and 10^−8 M SmLCO. After incubation for 6 h, plant roots were harvested and frozen in liquid nitrogen. […] An aliquot of each total RNA sample was used to determine RNA concentration and purity assessed on the NanoDrop ND-1000 spectral photometer (Peglab, Erlangen, Germany). RNA integrity was analyzed on the 2100 Bioanalyzer using RNA 6000 Nano LabChip Kits (Agilent Technologies). […] Gene expression was determined by an ABI 7500 using a SYBR green PCR master mix (Bio-Rad). […] Expression data were analyzed from the average of threshold cycle (CT) value, using an M. truncatula endogenous Histone 2A (H2A) gene as reference and fold induction calculated for treatment of elicitors relative to treatment with DMSO. […]
# Gene expression was measured by RNA-seq. […] M. truncatula RLK gene expression levels were measured by qRT-PCR (FIGS. 24B-24E), as described in Example 1.
# [2] = tested on: M. truncatula root epidermal cells; test: Nuclear calcium imaging after CO/LCO treatment; assay type: cell-based, Medicago truncatula; conditions: lateral roots; −N−P and +N+P conditions
# Protocol: For calcium analyses M. truncatula seedlings were grown on Buffered Nodulation Media (BNM) agar with 100 nM Aminoethoxyvinylglycine (AVG; Sigma-Aldrich) until lateral roots emerged (FIGS. 1A-1B). […] The lateral roots were fixed in a small chamber made on a cover glass using vacuum grease, with 500 μl of BNM buffer. The roots were then treated with COs (CO4 or CO8), LCOs (non-sulfated LCO (NS-LCO) or a LCO derived from Sinorhizobium meliloti (SmLCO)), at the concentrations indicated in FIGS. 1A-1B. Recordings were collected on an inverted epifluorescence microscope (model TE2000; Nikon). Yellow cameleon YC3.6 was excited with an 458-nm laser and imaged using emission filters 476-486 nm for CFP and 529-540 nm for YFP. The calcium images were collected every 5 seconds with 1 second exposure and analyzed using Metafluor (Molecular Devices). Calcium traces used the intensity ratio of YFP to CFP. For better visualization of calcium signals, the traces were flattened to a single axis by subtracting the values with moving average as the following formula:
# [formula] Where Sf is the flattened signal, So is the original signal, and MA is the moving average of the value. For each element i, MA is calculated as:
# [formula] where m is the arbitrary number of points to calculate the average, w=[m/2] and xj is the signal at point j. M. truncatula Gene Expression
# [3] = tested on: R. irregularis colonization of H. vulgare; test: Mycorrhizal colonization assay with R. irregularis; assay type: in vivo, Hordeum vulgare; conditions: 0.1 μM GR24 twice a week
# Protocol: FIGS. 14A-14D provide the effects of treating H. vulgare plants with a strigolactone or with both a strigolactone and a CEP peptide. […] Plants were grown under high nitrate and high phosphate (5 mM NO3^− and 0.5 mM PO4^−) and cells were treated with 10^−7 M SmLCO. The top trace represents cells without any additional treatment, the middle trace represents cells that were pre-treated with 1 μM 5-deoxystrigol, and the bottom trace represents cells that were pre-treated with 1 μM 5-deoxystrigol and 1 μM CEP3. The scale bar indicates a span of 10 minutes, and the fractions indicate the number of cells that responded over the total number of cells analyzed. FIGS. 14B-14C provide the level of mycorrhizal colonization of H. vulgare when treated with the synthetic strigolactone analog GR24 under different nutrient conditions, as determined in two separate experiments. In FIG. 14B, colonization was measured 7 weeks post inoculation, and the x-axis indicates the nutrient conditions tested, and whether the plants were treated with GR24. […] In FIG. 14C, colonization was measured 6 weeks post inoculation, and the x-axis indicates the nutrient conditions tested, and whether the plants were treated with GR24. […] In FIGS. 14B-14C, the y-axis represents the percentage of roots colonized by mycorrhizal fungi, and the shading of each bar represents the fungal structure quantified. […]
# [4] = then 24 hours, 0.1 μM GR24, 1 μM TIS108
smiles,measurement,setting,value
O=C(c1ccccc1)C(CCCCOc1ccccc1)n1cncn1 (centres unmarked) [TIS108],LysM RLK gene expression compared to mock treatment,[1]; then 1 μM TIS108 for 24 hours,either the same or lower
CC(=O)N[C@H]1[C@H](O[C@H]2[C@H](O)[C@@H](NC(C)=O)C(O)O[C@@H]2CO)O[C@H](CO)[C@@H](O[C@@H]2O[C@H](CO)[C@@H](O[C@@H]3O[C@H](CO)[C@@H](O)[C@H](O)[C@H]3NC(C)=O)[C@H](O)[C@H]2NC(C)=O)[C@@H]1O (some centres unmarked) [CO4],nuclear symbiotic calcium oscillations (Cells spiking),[2],promoted nuclear symbiotic oscillations
CC(=O)N[C@H]1[C@H](O[C@H]2[C@H](O)[C@@H](NC(C)=O)[C@H](O[C@H]3[C@H](O)[C@@H](NC(C)=O)[C@H](O[C@H]4[C@H](O)[C@@H](NC(C)=O)C(O)O[C@@H]4CO)O[C@@H]3CO)O[C@@H]2CO)O[C@H](CO)[C@@H](O[C@@H]2O[C@H](CO)[C@@H](O[C@@H]3O[C@H](CO)[C@@H](O[C@@H]4O[C@H](CO)[C@@H](O[C@@H]5O[C@H](CO)[C@@H](O)[C@H](O)[C@H]5NC(C)=O)[C@H](O)[C@H]4NC(C)=O)[C@H](O)[C@H]3NC(C)=O)[C@H](O)[C@H]2NC(C)=O)[C@@H]1O (some centres unmarked) [CO8],nuclear symbiotic calcium oscillations (Cells spiking),[2],promoted nuclear symbiotic oscillations
CC1=C[C@H](O/C=C2/C(=O)O[C@@H]3c4ccccc4C[C@H]23)OC1=O [GR24],MtKUF1 expression compared to mock treatment,[1]; [4],significantly increased
same,MtLYK8 expression compared to mock treatment,[1]; [4],significantly increased
same,MtLYK10 expression compared to mock treatment,[1]; [4],significantly increased
same,promotion of mycorrhizal colonization,"[3]; 7 weeks post inoculation, no inhibitory effect of high phosphate seen",could not be observed
same,mycorrhizal colonization,"[3]; high phosphate (500 μM) and low nitrate (0.5 mM), 6 weeks post inoculation",promoted mycorrhizal colonization

# From patent US12503707B2, “Methods, plants and compositions for overcoming nutrient suppression of mycorrhizal symbiosis” (Cambridge Enterprise Limited, priority 2020, dated 2025)
